According to patent US20230398130A1, “METHODS AND COMPOSITIONS FOR DIFFERENTIATING STEM CELLS” (Massachusetts Institute of Technology, priority 2020, published 2023):
Structures can show the parent of a compound that is named as a salt.

Tests used:
[1] = system: ISC-enriched organoids; assay: Primary screen, 384-well 2.5-D organoid differentiation (ENR+CD, 6 days): basal lysozyme secretion (LYZ.NS); type: cell-based, murine; details: for Dose.FC.LYZ.NS (log 2 fold change): vs plate median; for Dose.FC.LYZ.NS: FC vs plate median; for SSMD.LYZ.NS: strictly standardized mean difference
Description: (§1) High-throughput screening.

[2] = system: ISC-enriched organoids; assay: Primary screen, 384-well 2.5-D organoid differentiation (ENR+CD, 6 days): carbachol-induced lysozyme secretion (LYZ.S); type: cell-based, murine; details: for Dose.FC.LYZ.S (log 2 fold change): vs plate median; for Dose.FC.LYZ.S: FC vs plate median; for Z.LYZ.S: standard z score; for SSMD.LYZ.S: strictly standardized mean difference
Description: as §1

[3] = system: ISC-enriched organoids; assay: Primary screen, 384-well 2.5-D organoid differentiation (ENR+CD, 6 days, Target Selective Inhibitor Library, vs whole-plate median): ATP (CellTiter-Glo 3D, CTG); details: for Dose.FC.CTG (log 2 fold change): vs plate median; for Dose.FC.CTG: FC vs plate median; for SSMD.CTG: strictly standardized mean difference
[4] = Dose 0.08 uM, standard z score of FC
[5] = Dose 0.40 uM, standard z score of FC
[6] = Dose 2.00 uM, standard z score of FC
[7] = Dose 10.00 uM, standard z score of FC
[8] = Dose 0.08 uM, primary screen, standard z score
[9] = Dose 0.40 uM, primary screen, standard z score
[10] = Dose 2.00 uM, primary screen, standard z score
[11] = Dose 10.00 uM, primary screen, standard z score
[12] = primary screen, 1st of the 4 dose lines of the treatment (dose not given)
[13] = primary screen, 2nd of the 4 dose lines of the treatment (dose not given)
[14] = primary screen, 3rd of the 4 dose lines of the treatment (dose not given)
[15] = primary screen, 4th of the 4 dose lines of the treatment (dose not given)

COc1cc2c(N3CCN(C(=O)Nc4ccc(OC(C)C)cc4)CC3)ncnc2cc1OCCCN1CCCCC1 [Tandutinib (MLN518)]
Z.LYZ.NS (standard z score) ([1]; Dose 0.08 uM, primary screen): 0.828 | Dose.FC.LYZ.NS (log 2 fold change) ([1]; Dose 0.08 uM, primary screen): 0.095 | Z.LYZ.NS (standard z score) ([1]; Dose 0.40 uM, primary screen): 1.066 | Dose.FC.LYZ.NS (log 2 fold change) ([1]; Dose 0.40 uM, primary screen): 0.122 | Z.LYZ.NS (standard z score) ([1]; Dose 2.00 uM, primary screen): 1.012 | Dose.FC.LYZ.NS (log 2 fold change) ([1]; Dose 2.00 uM, primary screen): 0.116 | Z.LYZ.NS (standard z score) ([1]; Dose 10.00 uM, primary screen): 0.407 | Dose.FC.LYZ.NS (log 2 fold change) ([1]; Dose 10.00 uM, primary screen): 0.047 | Dose.FC.LYZ.S (log 2 fold change) ([2]; Dose 0.08 uM, primary screen): 0.145 | Dose.FC.LYZ.S (log 2 fold change) ([2]; Dose 0.40 uM, primary screen): 0.178 | Dose.FC.LYZ.S (log 2 fold change) ([2]; Dose 2.00 uM, primary screen): 0.093 | Dose.FC.LYZ.S (log 2 fold change) ([2]; Dose 10.00 uM, primary screen): 0.100 | Z.CTG (standard z score) ([3]; Dose 0.08 uM, primary screen): 1.397 | Dose.FC.CTG (log 2 fold change) ([3]; Dose 0.08 uM, primary screen): 0.585 | Z.CTG (standard z score) ([3]; Dose 0.40 uM, primary screen): 0.845 | Dose.FC.CTG (log 2 fold change) ([3]; Dose 0.40 uM, primary screen): 0.354 | Z.CTG (standard z score) ([3]; Dose 2.00 uM, primary screen): 0.856 | Dose.FC.CTG (log 2 fold change) ([3]; Dose 2.00 uM, primary screen): 0.358 | Z.CTG (standard z score) ([3]; Dose 10.00 uM, primary screen): 1.401 | Dose.FC.CTG (log 2 fold change) ([3]; Dose 10.00 uM, primary screen): 0.586

COc1cccc(C=NCCN=Cc2cccc(OC)c2[O-])c1[O-].[Cl-].[Mn+3] [EUK 134]
Dose.FC.LYZ.NS ([1]; Dose 0.08 uM, ENR+CD, 6 days): 0.068 log 2 fold change | Z.LYZ.NS [1, 4]: 0.594 | Dose.FC.LYZ.NS ([1]; Dose 0.40 uM, ENR+CD, 6 days): 0.003 log 2 fold change | Z.LYZ.NS [1, 5]: 0.026 | Dose.FC.LYZ.NS ([1]; Dose 2.00 uM, ENR+CD, 6 days): 0.028 log 2 fold change | Z.LYZ.NS [1, 6]: 0.247 | Dose.FC.LYZ.NS ([1]; Dose 10.00 uM, ENR+CD, 6 days): −0.085 log 2 fold change | Z.LYZ.NS [1, 7]: −0.741 | Dose.FC.LYZ.S ([2]; Dose 0.08 uM, ENR+CD, 6 days): 0.025 log 2 fold change | Dose.FC.LYZ.S ([2]; Dose 0.40 uM, ENR+CD, 6 days): 0.057 log 2 fold change | Dose.FC.LYZ.S ([2]; Dose 2.00 uM, ENR+CD, 6 days): −0.034 log 2 fold change | Dose.FC.LYZ.S ([2]; Dose 10.00 uM, ENR+CD, 6 days): −0.132 log 2 fold change | Dose.FC.CTG ([3]; Dose 0.08 uM, ENR+CD, 6 days): −0.015 log 2 fold change | Z.CTG [3, 4]: −0.035 | Dose.FC.CTG ([3]; Dose 0.40 uM, ENR+CD, 6 days): −0.162 log 2 fold change | Z.CTG [3, 5]: −0.387 | Dose.FC.CTG ([3]; Dose 2.00 uM, ENR+CD, 6 days): 0.091 log 2 fold change | Z.CTG [3, 6]: 0.217 | Dose.FC.CTG ([3]; Dose 10.00 uM, ENR+CD, 6 days): −0.024 log 2 fold change | Z.CTG [3, 7]: −0.057

Maraviroc
Dose.FC.LYZ.NS ([1]; Dose 0.08 uM, primary screen): 0.047 log 2 fold change | Z.LYZ.NS [1, 8]: 0.411 | Dose.FC.LYZ.NS ([1]; Dose 0.40 uM, primary screen): 0.041 log 2 fold change | Z.LYZ.NS [1, 9]: 0.358 | Dose.FC.LYZ.NS ([1]; Dose 2.00 uM, primary screen): 0.031 log 2 fold change | Z.LYZ.NS [1, 10]: 0.269 | Dose.FC.LYZ.NS ([1]; Dose 10.00 uM, primary screen): 0.087 log 2 fold change | Z.LYZ.NS [1, 11]: 0.759 | SSMD.LYZ.NS [1, 12]: 0.274 | SSMD.LYZ.NS [1, 13]: 0.365 | SSMD.LYZ.NS [1, 14]: 0.225 | SSMD.LYZ.NS [1, 15]: 0.547 | Dose.FC.LYZ.S ([2]; Dose 0.08 uM, primary screen): 0.054 log 2 fold change | Dose.FC.LYZ.S ([2]; Dose 0.40 uM, primary screen): 0.195 log 2 fold change | Dose.FC.LYZ.S ([2]; Dose 2.00 uM, primary screen): 0.005 log 2 fold change | Dose.FC.LYZ.S ([2]; Dose 10.00 uM, primary screen): 0.077 log 2 fold change | Z.LYZ.S [2, 12]: 0.350 | Z.LYZ.S [2, 13]: 1.262 | Z.LYZ.S [2, 14]: 0.034 | Z.LYZ.S [2, 15]: 0.495 | SSMD.LYZ.S [2, 12]: 0.262 | SSMD.LYZ.S [2, 13]: 0.754 | SSMD.LYZ.S [2, 14]: 0.028 | SSMD.LYZ.S [2, 15]: 0.400 | Dose.FC.CTG ([3]; Dose 0.08 uM, primary screen): −0.084 log 2 fold change | Z.CTG [3, 8]: −0.201 | Dose.FC.CTG ([3]; Dose 0.40 uM, primary screen): 0.079 log 2 fold change | Z.CTG [3, 9]: 0.188 | Dose.FC.CTG ([3]; Dose 2.00 uM, primary screen): −0.009 log 2 fold change | Z.CTG [3, 10]: −0.022 | Dose.FC.CTG ([3]; Dose 10.00 uM, primary screen): 0.139 log 2 fold change | Z.CTG [3, 11]: 0.331 | SSMD.CTG [3, 12]: −0.294 | SSMD.CTG [3, 13]: 0.187 | SSMD.CTG [3, 14]: −0.030 | SSMD.CTG [3, 15]: 0.270

CC12CC3CC(C)(C1)CC(N)(C3)C2 [Memantine HCl]
SSMD.LYZ.NS [1, 12]: 0.489 | SSMD.LYZ.NS [1, 13]: 0.038 | SSMD.LYZ.NS [1, 14]: 0.745 | SSMD.LYZ.NS [1, 15]: −0.407 | Z.LYZ.S [2, 12]: 0.586 | Z.LYZ.S [2, 13]: 0.112 | Z.LYZ.S [2, 14]: 0.328 | Z.LYZ.S [2, 15]: −0.138 | SSMD.LYZ.S [2, 12]: 0.420 | SSMD.LYZ.S [2, 13]: 0.134 | SSMD.LYZ.S [2, 14]: 0.292 | SSMD.LYZ.S [2, 15]: −0.142 | Z.CTG [3, 8]: 0.199 | Z.CTG [3, 9]: 0.173 | Z.CTG [3, 10]: −0.018 | Z.CTG [3, 11]: 0.184 | SSMD.CTG [3, 12]: 0.214 | SSMD.CTG [3, 13]: 0.219 | SSMD.CTG [3, 14]: −0.016 | SSMD.CTG [3, 15]: 0.145
